Counter-ions that a name gives are not always drawn. Like-named read-outs stand apart in the source and are kept apart here. Blank lines part the entries; values can stand above or below the compound they belong to.
How the values were obtained:
[1] = system: AB5075; experiment: Broth microdilution MIC of compound alone (standalone toxicity); type: cell-based, Acinetobacter baumannii
Protocol: (§1) Bacterial Strains and Antimicrobial Agents. Acinetobacter baumannii clinical isolate 5075 was obtained from Dr. Colin Manoil at the University of Washington. Colonies were grown on lysogeny broth (LB) agar. Cation-adjusted Mueller-Hinton Broth (CAMHB) (catalog number 212322) were purchased from BD Diagnostics. LB broth was purchased from Fisher Scientific (catalog number BP9722-2). […] Colistin sulfate salt (catalog number C4461) was purchased from Sigma Aldrich. All assays were completed in duplicate and repeated at least two separate times. All compounds were dissolved as their HCl salts in molecular biology grade DMSO as 10 or 100 mM stock solutions and stored at −20° C. Colistin was dissolved in sterile water while clarithromycin was dissolved in molecular biology grade DMSO.
Broth microdilution method for MIC determination. Day cultures (6 h) of each bacterial strain in cation adjusted Mueller Hinton II broth (CAMHB, Fisher Scientific U.S.) were subcultured to 5×10^5 CFU/mL in CAMHB. Aliquots (1 mL) were placed in culture tubes and compound was added from 10 mM stock samples in DMSO, such that compound concentration equaled highest concentration tested (200 μM). Samples were then aliquoted (200 μL) into the first wells of a 96-well plate, with all remaining wells being filled with 100 μL of initial bacterial subculture. Row one wells were mixed five times, before 100 μL was transferred to row two. Row two was then mixed five times, and 100 μL was transferred to row three. This process was repeated until the final row had been mixed; this served to serially dilute the compound. Plates were then covered with GLAD Press n'Seal and incubated under stationary conditions at 37° C. for 16 h. MIC values were then recorded as the lowest concentration at which no bacterial growth was observed.

[2] = system: AB5075; experiment: Broth microdilution clarithromycin (CLR) potentiation and dose-response of adjuvant; type: cell-based, Acinetobacter baumannii; details: for adjuvant activity (CLR potentiation), rank by amide linker position: dosed at 30 μM
Protocol: as §1
Broth microdilution method for antibiotic potentiation. Day cultures (6 h) of bacteria in CAMHB were subcultured to 5×10^5 CFU/mL in CAMHB. Aliquots (4 mL) were placed in culture tubes and dosed with compound from 10 mM stock samples to give the desired concentration of the compound to be tested against the particular bacterial strain; this insured non-toxic DMSO concentrations ≤0.3% in each well. 1 mL of the resulting solution was placed in a separate culture and dosed with antibiotic at the highest concentration to be tested. Bacteria treated with antibiotic alone served as the control. Row one of a 96-well plate was filled with 200 μL of the antibiotic/2-AI solution, and rows 2-12 were filled with 100 μL each of the remaining 4 mL of bacterial subculture containing adjuvant at the desired concentration, except for the control lane which contained only bacterial subculture. Row one was then mixed five times, and 100 μL was transferred to row two, which was then mixed five times before being transferred to row three. This process was repeated until all rows had been mixed, except for row twelve which would have only 2-AI to serve as a control to monitor potential toxicity. The 96-well plate was then covered in Glad Press n'Seal and incubated under stationary conditions at 37° C. for 16 h. MIC values were determined as the lowest concentration at which no bacterial growth was observed, and fold reductions were determined by comparison to antibiotic control lane.
Dose-response of Adjuvant Assay. The procedure for ‘broth microdilution method for antibiotic potentiation’ was followed using 4 mL aliquots of adjuvant at various concentrations: 0, 5, 7.5, 10, 15, 20, 25, and 30 μM.

SMILES: Nc1nc(-c2ccc(NC(=O)c3ccccc3)cc2)c[nH]1 [Compound 4a, N-(4-(2-amino-1H-imidazol-4-yl)phenyl)benzamide hydrochloride]
MIC ([1]; Acinetobacter baumannii): > 200 µM

SMILES: Cl.Nc1nc(-c2ccc(NC(=O)c3cccc(I)c3)cc2)c[nH]1 [Compound 4b]
MIC [1]: >200 µM
CLR MIC ([2]; compound tested at 30 μM): 32 µg/mL

SMILES: Cl.Nc1nc(-c2ccc(NC(=O)c3cccc(Br)c3)cc2)c[nH]1 [Compound 4c]
MIC [1]: >200 µM
CLR MIC ([2]; compound tested at 30 μM): 32 µg/mL

SMILES: Cl.Nc1nc(-c2ccc(NC(=O)c3cccc(Cl)c3)cc2)c[nH]1 [Compound 4d, 4-(2-Amino-3H-imidazol-4-yl)phenyl]-3-chlorobenzamide hydrochloride]
MIC ([1]; Acinetobacter baumannii): 200 µM

SMILES: Cl.Nc1nc(-c2ccc(NC(=O)c3ccc(C(F)(F)F)cc3)cc2)c[nH]1 [Compound 4f]
MIC [1]: >200 µM
CLR MIC ([2]; compound tested at 30 μM): 32 µg/mL

SMILES: Cl.Nc1nc(-c2ccc(NC(=O)c3ccc(I)cc3)cc2)c[nH]1 [Compound 4g]
MIC [1]: >200 µM
CLR MIC ([2]; compound tested at 30 μM): 16 µg/mL

SMILES: Nc1nc(-c2ccc(NC(=O)c3ccc(Br)cc3)cc2)c[nH]1 [Compound 4h, N-(4-(2-amino-1H-imidazol-4-yl)phenyl)-4-bromobenzamide hydrochloride]
MIC ([1]; Acinetobacter baumannii): > 200 µM

SMILES: Cl.Nc1nc(-c2ccc(NC(=O)c3ccc(Cl)cc3)cc2)c[nH]1 [Compound 4i, 4-(2-Amino-3H-imidazol-4-yl)phenyl]-4-chlorobenzamide hydrochloride]
MIC ([1]; Acinetobacter baumannii): > 200 µM

SMILES: Cl.Nc1nc(-c2ccc(NC(=O)c3ccc(F)cc3)cc2)c[nH]1 [Compound 4j, N-(4-(2-amino-1H-imidazol-4-yl)phenyl)-4-fluorobenzamide hydrochloride]
MIC ([1]; Acinetobacter baumannii): > 200 µM
CLR MIC ([2]; compound tested at 30 μM): 8 µg/mL

SMILES: Cl.Nc1nc(-c2ccc(NC(=O)c3cc(C(F)(F)F)cc(C(F)(F)F)c3)cc2)c[nH]1 [Compound 4l, 4-(2-Amino-3H-imidazol-4-yl)phenyl]-3,5-(bistrifluoromethyl)benzamide hydrochloride]
MIC ([1]; Acinetobacter baumannii): 50 µM

SMILES: Cl.Nc1nc(-c2ccc(NC(=O)c3cc(C(F)(F)F)cc(C(F)(F)F)c3)cc2)c[nH]1 [Compound 4l]
CLR MIC ([2]; compound tested at 15 μM): 8 µg/mL

SMILES: Cl.Nc1nc(-c2ccc(NC(=O)c3cccc(Cl)c3Cl)cc2)c[nH]1 [Compound 4q, N-(4-(2-amino-1H-imidazol-4-yl)phenyl)-2,3-dichlorobenzamide hydrochloride]
MIC ([1]; Acinetobacter baumannii): > 200 µM
CLR MIC ([2]; compound tested at 30 μM): 8 µg/mL
Fold Reduction of CLR MIC ([2]; compound tested at 30 μM): four-fold

SMILES: Cl.Nc1nc(-c2ccc(NC(=O)c3ccc(Br)cc3F)cc2)c[nH]1 [Compound 4u]
MIC [1]: >200 µM
CLR MIC ([2]; compound tested at 10 μM): 32 µg/mL
CLR MIC ([2]; compound tested at 20 μM): 16 µg/mL
CLR MIC ([2]; compound tested at 30 μM): 2 µg/mL

SMILES: Cl.Nc1nc(-c2ccc(NC(=O)c3c(F)c(F)c(F)c(F)c3F)cc2)c[nH]1 [Compound 4x, N-(4-(2-amino-1H-imidazol-4-yl)phenyl)-2,3,4,5,6-pentafluorobenzamide hydrochloride]
MIC ([1]; Acinetobacter baumannii): > 200 µM
CLR MIC ([2]; compound tested at 30 μM): 4 µg/mL

SMILES: Nc1nc(-c2cccc(NC(=O)c3cc(F)cc(F)c3)c2)c[nH]1 [Compound 18]
adjuvant activity (CLR potentiation), rank by amide linker position [2]: 4k (highest adjuvant activity) >meta amide linker 18>ortho amide linker 19

SMILES: Nc1nc(-c2ccccc2NC(=O)c2cc(F)cc(F)c2)c[nH]1 [Compound 19]
adjuvant activity (CLR potentiation), rank by amide linker position [2]: lowest adjuvant activity

The next lines start with results.

CLR MIC ([2]; compound tested at 10 μM): 16 µg/mL
CLR MIC ([2]; compound tested at 20 μM): 4 µg/mL
SMILES: Cl.Nc1nc(-c2ccc(NC(=O)c3cccc(Cl)c3)cc2)c[nH]1 [Compound 4d]

CLR MIC ([2]; compound tested at 30 μM): 16 µg/mL
SMILES: Cl.Nc1nc(-c2ccc(NC(=O)c3cccc(F)c3)cc2)c[nH]1 [Compound 4e]
MIC [1]: >200 µM

CLR MIC ([2]; compound tested at 10 μM): 16 µg/mL
CLR MIC ([2]; compound tested at 20 μM): 4 µg/mL
SMILES: Cl.Nc1nc(-c2ccc(NC(=O)c3ccc(Cl)cc3)cc2)c[nH]1 [Compound 4i]

CLR MIC ([2]; compound tested at 30 μM): 2 µg/mL
SMILES: Cc1cc(C)cc(C(=O)Nc2ccc(-c3c[nH]c(N)n3)cc2)c1.Cl [Compound 4m, N-(4-(2-amino-1H-imidazol-4-yl)phenyl)-3,5-dimethylbenzamide hydrochloride]
MIC ([1]; Acinetobacter baumannii): > 200 µM

CLR MIC ([2]; compound tested at 5 μM): 16 µg/mL
CLR MIC ([2]; compound tested at 7.5 μM): 4 µg/mL
CLR MIC ([2]; compound tested at 10 μM): 1 µg/mL
Fold Reduction of CLR MIC ([2]; compound tested at 10 μM): 32 fold
CLR MIC ([2]; compound tested at 15 μM): 0.5 µg/mL
SMILES: Cl.Nc1nc(-c2ccc(NC(=O)c3ccc(C(F)(F)F)c(F)c3)cc2)c[nH]1 [Compound 4p, N-(4-(2-amino-1H-imidazol-4-yl)phenyl)-3-fluoro-4-(trifluoromethyl)benzamide hydrochloride]
MIC ([1]; Acinetobacter baumannii): 50 µM

CLR MIC ([2]; compound tested at 30 μM): 4 µg/mL
Fold Reduction of CLR MIC ([2]; compound tested at 30 μM): eight-fold
SMILES: Cl.Nc1nc(-c2ccc(NC(=O)c3ccc(Cl)cc3Cl)cc2)c[nH]1 [Compound 4t]
MIC [1]: >200 µM

CLR MIC ([2]; compound tested at 30 μM): 32 µg/mL
SMILES: Cl.Nc1nc(-c2ccc(NC(=O)c3cc(I)c(I)c(I)c3)cc2)c[nH]1 [Compound 4w]
MIC [1]: >200 µM

CLR MIC ([2]; compound tested at 7.5 μM): 8 µg/mL
CLR MIC ([2]; compound tested at 10 μM): 0.25 µg/mL
Fold Reduction of CLR MIC ([2]; compound tested at 10 μM): 128 fold
CLR MIC ([2]; compound tested at 20 μM): 0.25 µg/mL
SMILES: Cl.Nc1nc(-c2ccc(NC(=O)c3cc(Cl)c(Br)c(Cl)c3)cc2)c[nH]1 [Compound 4y, N-(4-(2-amino-1H-imidazol-4-yl)phenyl)-4-bromo-3,5-dichlorobenzamide hydrochloride]
MIC ([1]; Acinetobacter baumannii): 200 µM

CLR MIC ([2]; compound tested at 10 μM): 16 µg/mL
CLR MIC ([2]; compound tested at 20 μM): 4 µg/mL
Fold Reduction of CLR MIC ([2]; compound tested at 20 μM): 8 fold
CLR MIC ([2]; compound tested at 30 μM): 0.5 µg/mL
Fold Reduction of CLR MIC ([2]; compound tested at 30 μM): 64 fold
SMILES: COc1cc(-c2c[nH]c(N)n2)ccc1NC(=O)c1cc(Cl)cc(Cl)c1.Cl [Compound 6a, N-(4-(2-amino-1H-imidazol-4-yl)-2-methoxyphenyl)-3,5-dichlorobenzamide hydrochloride]
MIC ([1]; Acinetobacter baumannii): 100 µM

CLR MIC ([2]; compound tested at 10 μM): 8 µg/mL
CLR MIC ([2]; compound tested at 20 μM): 0.5 µg/mL
Fold Reduction of CLR MIC ([2]; compound tested at 20 μM): 64 fold
CLR MIC ([2]; compound tested at 30 μM): 0.5 µg/mL
Fold Reduction of CLR MIC ([2]; compound tested at 30 μM): 64 fold
SMILES: Cc1cc(NC(=O)c2cc(Cl)cc(Cl)c2)ccc1-c1c[nH]c(N)n1.Cl [Compound 6b, N-(4-(2-amino-1H-imidazol-4-yl)-3-methylphenyl)-3,5-dichlorobenzamide hydrochloride]
MIC ([1]; Acinetobacter baumannii): > 200 µM

CLR MIC ([2]; compound tested at 10 μM): 16 µg/mL
CLR MIC ([2]; compound tested at 20 μM): 1 µg/mL
Fold Reduction of CLR MIC ([2]; compound tested at 20 μM): 32 fold
CLR MIC ([2]; compound tested at 30 μM): 0.5 µg/mL
Fold Reduction of CLR MIC ([2]; compound tested at 30 μM): 64 fold
SMILES: Cc1cc(-c2c[nH]c(N)n2)ccc1NC(=O)c1cc(Cl)cc(Cl)c1.Cl [Compound 10a, N-(4-(2-amino-1H-imidazol-4-yl)-2-methylphenyl)-3,5-dichlorobenzamide hydrochloride]
MIC ([1]; Acinetobacter baumannii): > 200 µM

CLR MIC ([2]; compound tested at 30 μM): 16 µg/mL
SMILES: Cl.Nc1nc(-c2ccc(NC(=O)c3cc(Cl)cc(Cl)c3)c(Cl)c2)c[nH]1 [Compound 10b, N-(4-(2-amino-1H-imidazol-4-yl)-2-chlorophenyl)-3,5-dichlorobenzamide hydrochloride]
MIC ([1]; Acinetobacter baumannii): > 200 µM

CLR MIC ([2]; compound tested at 30 μM): 8 µg/mL
SMILES: Cl.Nc1nc(-c2ccc(NC(=O)c3cc(Cl)cc(Cl)c3)c(F)c2)c[nH]1 [Compound 10c, N-(4-(2-amino-1H-imidazol-4-yl)-2-fluorophenyl)-3,5-dichlorobenzamide hydrochloride]
MIC ([1]; Acinetobacter baumannii): > 200 µM

CLR MIC ([2]; compound tested at 5 μM): 8 µg/mL
Fold Reduction of CLR MIC ([2]; compound tested at 5 μM): 4 fold
CLR MIC ([2]; compound tested at 7.5 μM): 4 µg/mL
CLR MIC ([2]; compound tested at 10 μM): 0.5 µg/mL
Fold Reduction of CLR MIC ([2]; compound tested at 10 μM): 64 fold
CLR MIC ([2]; compound tested at 20 μM): 0.25 µg/mL
Fold Reduction of CLR MIC ([2]; compound tested at 20 μM): 128 fold
CLR MIC ([2]; compound tested at 30 μM, hydrochloride): 0.25 µg/mL
SMILES: Cl.Nc1nc(-c2ccc(NC(=O)c3cc(Cl)cc(Cl)c3)cc2F)c[nH]1 [Compound 10d, N-(4-(2-amino-1H-imidazol-4-yl)-3-fluorophenyl)-3,5-dichlorobenzamide hydrochloride]
MIC ([1]; Acinetobacter baumannii): > 200 µM

Fold Reduction of CLR MIC ([2]; compound tested at 10 μM): two-fold
CLR MIC ([2]; compound tested at 20 μM): 8 µg/mL
CLR MIC ([2]; compound tested at 30 μM): 4 µg/mL
SMILES: Cl.Nc1nc(-c2c(F)cc(NC(=O)c3cc(Cl)cc(Cl)c3)cc2F)c[nH]1 [Compound 13, N-(4-(2-amino-1H-imidazol-4-yl)-3,5-difluorophenyl)-3,5-dichlorobenzamide hydrochloride]

Source: patent US12559461B2, “Antibiotic adjuvant compounds” (UNIVERSITY OF NOTRE DAME DU LAC, priority 2020, dated 2026)
